Results: patent US5977133A, “Pyridone antibiotic with improved safety profile” (priority 1998, dated 1999)

Tests used:
[1] = test system: H. influenzae; experiment: In vitro MIC, agar dilution; type: cell-based; details: H. influenzae, 18 isolates
[2] = test system: P. aeruginosa (CiproR); experiment: In vitro MIC, agar dilution; type: cell-based; details: P. aeruginosa (CiproR), 20 isolates
[3] = test system: S. aureus (CiproS); experiment: In vitro MIC, agar dilution; type: cell-based; details: S. aureus (CiproS), 21 isolates
[4] = test system: S. pyogenes; experiment: In vitro MIC, agar dilution; type: cell-based; details: S. pyogenes, 21 isolates
[5] = test system: Providencia spp.; experiment: In vitro MIC, agar dilution; type: cell-based; details: Providencia spp., 28 isolates
[6] = test system: C. perfringens; experiment: microbe, parasite or virus in culture; type: cell-based; details: C. perfringens, 13 isolates
[7] = test system: Enterobacter spp.; experiment: In vitro MIC, agar dilution; type: cell-based; details: Enterobacter spp., 35 isolates
[8] = test system: C. difficile; experiment: In vitro MIC, agar dilution; type: cell-based; details: C. difficile, 10 isolates
[9] = test system: Legionella spp.; experiment: microbe, parasite or virus in culture; type: cell-based
[10] = test system: S. epidermidis (CiproS); experiment: In vitro MIC, agar dilution; type: cell-based; details: S. epidermidis (CiproS), 23 isolates
[11] = test system: Enterococcus spp. (VanR); experiment: In vitro MIC, agar dilution; type: cell-based; details: Enterococcus spp. (VanR), 21 isolates
[12] = test system: M. avium; experiment: In vitro MIC, agar dilution; type: cell-based; details: M. avium, 20 isolates
[13] = test system: Salmonella spp.; experiment: In vitro MIC, agar dilution; type: cell-based; details: 23 isolates
Description: (§1) Each plate was inoculated with 1:100 (or 1:10 for slow-growing strains, primarily Micrococcus and Streptococcus) dilutions of up to 32 different microorganisms, using a Steers replicator block calibrated to deliver approximately 10^4 colony forming units (CFU's). The inoculated plates were incubated at from about 35° C. to about 37 ° C. for approximately 20-24 hours. In addition, a control plate using BHI agar containing no test compound was prepared and incubated at the beginning and at the end of each test. The quinolone antibacterial ciprofloxacin was used as a control ("Cntl").
(§2) The numbers below the microorganism species indicate the nunbers of isolates tested. […] The MIC is defined as the lowest concentration of test compound yielding no growth (a slight haze or sparsely isolated colonies at the inoculum spot) as compared to the growth control containing no test compound.

[14] = test system: E. coli; experiment: In vitro MIC, agar dilution; type: cell-based; details: 25 isolates
Description: as §1, §2

[15] = test system: P. aeruginosa (CiproS); experiment: In vitro MIC, agar dilution; type: cell-based; details: P. aeruginosa (CiproS), 24 isolates
[16] = test system: E. faecium (CiproS); experiment: In vitro MIC, agar dilution; type: cell-based; details: E. faecium (CiproS), 16 isolates
[17] = test system: E. faecium (CiproR); experiment: In vitro MIC, agar dilution; type: cell-based; details: E. faecium (CiproR), 2 isolates
[18] = test system: S. pneumoniae (PenR); experiment: In vitro MIC, agar dilution; type: cell-based; details: S. pneumoniae (PenR), 25 isolates
[19] = mice, single intraperitoneal injection, 21 days
[20] = test system: S. pneumoniae (CiproR); experiment: In vitro MIC, agar dilution; type: cell-based; details: S. pneumoniae (CiproR), 3 isolates
[21] = test system: M. pneumoniae; experiment: In vitro MIC, agar dilution; type: cell-based; details: M. pneumoniae, 7 isolates
[22] = test system: M. catarrhalis; experiment: In vitro MIC, agar dilution; type: cell-based; details: M. catarrhalis, 18 isolates
[23] = test system: E. faecalis (VanS); experiment: In vitro MIC, agar dilution; type: cell-based; details: E. faecalis (VanS), 17 isolates
[24] = test system: S. epidermidis (CiproR); experiment: In vitro MIC, agar dilution; type: cell-based; details: S. epidermidis (CiproR), 11 isolates
[25] = test system: C. freundii; experiment: In vitro MIC, agar dilution; type: cell-based; details: C. freundii, 20 isolates
[26] = test system: S. aureus (CiproR); experiment: In vitro MIC, agar dilution; type: cell-based; details: S. aureus (CiproR), 25 isolates
[27] = test system: S. pneumoniae (PenS); experiment: In vitro MIC, agar dilution; type: cell-based; details: S. pneumoniae (PenS), 20 isolates
[28] = test system: Klebsiella spp.; experiment: In vitro MIC, agar dilution; type: cell-based; details: Klebsiella spp., 29 isolates
[29] = test system: B. fragilis; experiment: In vitro MIC, agar dilution; type: cell-based; details: B. fragilis, 18 isolates
[30] = test system: P. mirabilis; experiment: In vitro MIC, agar dilution; type: cell-based; details: P. mirabilis, 20 isolates
[31] = test system: N. gonorrhoeae; experiment: In vitro MIC, agar dilution; type: cell-based; details: N. gonorrhoeae, 12 isolates
[32] = test system: H. pylori; experiment: In vitro MIC, agar dilution; type: cell-based; details: H. pylori, 17 isolates

In the case of `Cc1c(N2CC[C@H](N)C2)c(F)cn2c(=O)c(C(=O)O)cc(C3CC3)c12.Cl` [Example 3, 1-cyclopropyl-8-(3(S)-3-amino-1-pyrrolidinyl)-7-fluoro-9-methyl-4-oxo-4H-quinolizine-3-carboxylic acid hydrochloride], the MIC50 [1] is reported as 0.015 µg/mL, the MIC90 [1] is reported as 0.03 µg/mL and the “MIC Range” value [1] is reported as 0.008 to 0.06 µg/mL. For the same molecule, the MIC50 [2] was 16 µg/mL, the MIC90 [2] was 32 µg/mL and the “MIC Range” value [2] was 16 to 64 µg/mL. For the same molecule, the “MIC Range” value [3] was 0.015 to 0.06 µg/mL, the MIC50 [4] was 0.03 µg/mL and the MIC90 [4] was 0.06 µg/mL. For the same molecule, the “MIC Range” value [4] was 0.015 to 0.06 µg/mL, the MIC50 [5] was 0.12 µg/mL and the MIC90 [5] was 0.25 µg/mL. The “MIC Range” value [5] was 0.03 to 1 µg/mL, the MIC50 [6] was 0.12 µg/mL and the MIC90 [6] was 0.25 µg/mL. The “MIC Range” value [6] was 0.06 to 0.25 µg/mL, the MIC50 [7] was 0.06 µg/mL and the MIC90 [7] was 0.12 µg/mL. The “MIC Range” value [7] was 0.03 to 0.5 µg/mL, the MIC50 [8] was 0.25 µg/mL and the MIC90 [8] was 0.5 µg/mL. The “MIC Range” value [8] was 0.25 to 0.5 µg/mL, the MIC50 [9] was 0.5 µg/mL and the MIC90 [9] was 1 µg/mL. For the same molecule, the “MIC Range” value [9] was 0.5 to 1 µg/mL, the MIC50 [10] was 0.03 µg/mL and the MIC90 [10] was 0.06 µg/mL. The “MIC Range” value [10] was 0.015 to 0.06 µg/mL, the MIC50 [11] was 0.5 µg/mL and the MIC90 [11] was 1 µg/mL. The “MIC Range” value [11] was 0.12 to 4 µg/mL, the MIC50 [12] was 4 µg/mL and the MIC90 [12] was 16 µg/mL. The “MIC Range” value [12] was 1 to 32 µg/mL, the MIC50 [13] was 0.06 µg/mL and the MIC90 [13] was 0.06 µg/mL. The MIC50 [14] was 0.03 µg/mL, the MIC90 [14] was 0.06 µg/mL and the MIC50 [15] was 0.25 µg/mL. For the same molecule, the MIC90 [15] was 1 µg/mL, the “MIC Range” value [15] was 0.12 to 1 µg/mL and the MIC50 [16] was 0.5 µg/mL. For the same molecule, the MIC90 [16] was 1 µg/mL, the “MIC Range” value [16] was 0.25 to 1 µg/mL and the “MIC Range” value [17] was 1 to 4 µg/mL. The MIC50 [18] was 0.12 µg/mL, the MIC90 [18] was 0.12 µg/mL and the “MIC Range” value [18] was 0.06 to 0.12 µg/mL. The LD50 [19] was 105.0 mg/kg, the “MIC Range” value [20] was 0.12 to 0.25 µg/mL and the “MIC Range” value [21] was 0.06 to 0.12 µg/mL. For the same molecule, the MIC50 [22] was 0.06 µg/mL, the MIC90 [22] was 0.06 µg/mL and the “MIC Range” value [22] was 0.015 to 0.06 µg/mL. The MIC50 [23] was 0.25 µg/mL, the MIC90 [23] was 0.25 µg/mL and the “MIC Range” value [23] was 0.12 to 0.25 µg/mL. For the same molecule, the MIC50 [24] was 0.25 µg/mL, the MIC90 [24] was 1 µg/mL and the “MIC Range” value [24] was 0.25 to 2 µg/mL. For the same molecule, the MIC50 [25] was 0.06 µg/mL, the MIC90 [25] was 0.25 µg/mL and the “MIC Range” value [25] was 0.015 to 0.25 µg/mL. For the same molecule, the MIC50 [26] was 0.25 µg/mL, the MIC90 [26] was 0.5 µg/mL and the “MIC Range” value [26] was 0.06 to 2 µg/mL. For the same molecule, the MIC50 [27] was 0.06 µg/mL, the MIC90 [27] was 0.12 µg/mL and the “MIC Range” value [27] was 0.06 to 0.12 µg/mL. The MIC50 [28] was 0.12 µg/mL, the MIC90 [28] was 0.12 µg/mL and the “MIC Range” value [28] was 0.015 to 0.5 µg/mL. For the same molecule, the MIC50 [29] was 0.25 µg/mL, the MIC90 [29] was 0.5 µg/mL and the “MIC Range” value [29] was 0.12 to 0.5 µg/mL. For the same molecule, the MIC50 [30] was 0.12 µg/mL, the MIC90 [30] was 0.25 µg/mL and the “MIC Range” value [30] was 0.06 to 0.25 µg/mL. For the same molecule, the MIC50 [31] was 0.008 µg/mL, the MIC90 [31] was 0.03 µg/mL and the “MIC Range” value [31] was 0.008 to 0.06 µg/mL. The MIC50 [32] was 0.12 µg/mL, the MIC90 [32] was 0.25 µg/mL and the “MIC Range” value [32] was 0.06 to 0.5 µg/mL.
